Source: US20220168427A1 (Ranok Therapeutics (Hangzhou) Co. Ltd., priority 2019, published 2022)
Counter-ions that a name gives are not always drawn.

Legend:
MV4-11 cells = assay: MV4-11 Cell Cytotoxicity Assay; assay type: cell-based, human; conditions: human, MV4-11 cells, CCK-8
From the text: % Inhibition=100−(D−B)/(S−B)*100%.
S: The absorbance of the maximum (cells with DMSO)
B: The absorbance of the minimum (medium with DMSO)

HSP90α = HSP90α (Homo sapiens, UniProt P07900); assay: HSP90α Binding Fluorescent Polarization (FP) Assay; conditions: competition with FITC-geldanamycin; read-out: HSP90 Binding Potency
Description: HSP90α Binding Fluorescent Polarization (FP) Assay
A master mix was prepared with assay buffer, BSA and FITC-geldanamycin. In a 96-well plate, a serial 3-fold dilution of each compound was prepared ranging from 40 μM down until 2.0 nM. Also in a 96-well plate, recombinant HSP90α protein was diluted to 28 μg/ml. Then, in a 384-well plate, 10 μl of master mix and 5 μl of compound dilution were added per well to duplicate wells and mixed by brief shaking. Then 5 μl of diluted HSP90α protein was added per well, mixed by brief shaking, incubated at 25° C. for 30, 60 and 120 min and fluorescence was measured on an EnVision Plate Reader. Background-subtracted mP values were calculated from EnVision raw data and a four-parameter “log[inhibitor] vs. response” curve was fitted using GraphPad Prism 7.0.

BRD4 (BD1+BD2) = molecular target: T1, BRD4 (BD1+BD2) (Homo sapiens, UniProt O60885); conditions: read-out: BRD4 Binding Potency
T1 construct: 1.8 μg/ml recombinant BRD4 (BD1+BD2 domains) protein
Description: A master mix was prepared with assay buffer, 1.8 μg/ml recombinant BRD4 (BD1+BD2 domains) protein, and 200-fold dilutions of Tb-labeled donor and dye-labeled acceptor. 40-fold dilutions of acetylated and non-acetylated ligands were prepared in 1×BRD TR-FRET assay buffer. Also, a serial 3-fold dilution of each compound was prepared ranging from 40 μM down until 2.0 nM. In a 384-well plate, 5 μl diluted ligand and 5 μl of compound dilution were added per well to duplicate wells and mixed by brief shaking. Then 10 μl of master mix was added per well, mixed by brief shaking, incubated at 25° C. for 2 hr and fluorescence was measured on an EnVision Plate Reader. The 665 nm/615 nm ratio was calculated from EnVision raw data. Data were normalized using whole-plate averages of “positive” and “negative” readings. A four-parameter “log[inhibitor] vs. response” curve was fitted using GraphPad Prism 7.0.

| Structure (SMILES) | IC50 at 72 h (MV4-11 cells) | IC50 (HSP90α) | IC50 (BRD4 (BD1+BD2)) |
| --- | --- | --- | --- |
| Cc1sc2c(c1C)C(c1ccc(Cl)cc1)=N[C@@H](CC(=O)N1CCC(CCN3CCC(Cc4ccc(-n5c(O)nnc5-c5cc(C(C)C)c(O)cc5O)cc4)CC3)CC1)c1nnc(C)n1-2 [Compound 80, (S)-2-(4-(4-chlorophenyl)-2,3,9-trimethyl-6H-thieno[3,2-f][1,2,4]triazolo[4,3-a][1,4]diazepin-6-yl)-1-(4-(2-(4-(4-(3-(2,4-dihydroxy-5-isopropylphenyl)-5-hydroxy-4H-1,2,4-triazol-4-yl)benzyl)piperidin-1-yl)ethyl)piperidin-1-yl)ethan-1-one, trifluoroacetic acid] | < 100 nM | 100 to 1000 nM | < 100 nM |
| Cc1sc2c(c1C)C(c1ccc(Cl)cc1)=N[C@@H](CC(=O)N[C@H](C)c1cccc(CN3CCC(Cc4ccc(-n5c(C(=O)NCC(F)(F)F)nnc5-c5cc(C(C)C)c(O)cc5O)cc4)CC3)c1)c1nnc(C)n1-2 [Compound 97, 4-(4-((1-(3-((R)-1-(2-((S)-4-(4-chlorophenyl)-2,3,9-trimethyl-6H-thieno[3,2-f][1,2,4]triazolo[4,3-a][1,4]diazepin-6-yl)acetamido)ethyl)benzyl)piperidin-4-yl)methyl)phenyl)-5-(2,4-dihydroxy-5-isopropylphenyl)-N-(2,2,2-trifluoroethyl)-4H-1,2,4-triazole-3-carboxamide, trifluoroacetic acid] | < 100 nM | 100 to 1000 nM | < 100 nM |
| Cc1sc2c(c1C)C(c1ccc(Cl)cc1)=N[C@@H](CC(=O)N1CCC(CN3CCN(Cc4ccc(-n5c(C(=O)NCCN6CCCCC6)nnc5-c5ccc(O)cc5O)cc4)CC3)CC1)c1nnc(C)n1-2 [Compound 110, (S)-4-(4-((4-((1-(2-(4-(4-chlorophenyl)-2,3,9-trimethyl-6H-thieno[3,2-f][1,2,4]triazolo[4,3-a][1,4]diazepin-6-yl)acetyl)piperidin-4-yl)methyl)piperazin-1-yl)methyl)phenyl)-5-(2,4-dihydroxyphenyl)-N-(2-(piperidin-1-yl)ethyl)-4H-1,2,4-triazole-3-carboxamide, trifluoroacetic acid] | 100 to 1000 nM | 100 to 1000 nM | < 100 nM |
| Cc1sc2c(c1C)C(c1ccc(Cl)cc1)=N[C@H](CC(=O)N1CCC(CN3CCN(Cc4ccc(-n5c(O)nnc5-c5cc(C(C)C)c(O)cc5O)cc4)CC3)CC1)c1nnc(C)n1-2 [Compound 125, (R)-2-(4-(4-chlorophenyl)-2,3,9-trimethyl-6H-thieno[3,2-f][1,2,4]triazolo[4,3-a][1,4]diazepin-6-yl)-1-(4-((4-(4-(3-(2,4-dihydroxy-5-isopropylphenyl)-5-hydroxy-4H-1,2,4-triazol-4-yl)benzyl)piperazin-1-yl)methyl)piperidin-1-yl)ethan-1-one hydrochloride] | < 100 nM | < 100 nM | > 1000 nM |
| CCc1cc(-c2nnc(C(=O)NCCN(CC)CC)n2-c2ccc(CN3CCN(CC4CCN(C(=O)C[C@@H]5N=C(c6ccc(Cl)cc6)c6c(sc(C)c6C)-n6c(C)nnc65)CC4)CC3)cc2)c(O)cc1O [Compound 104, (S)-4-(4-((4-((1-(2-(4-(4-chlorophenyl)-2,3,9-trimethyl-6H-thieno[3,2-f][1,2,4]triazolo[4,3-a][1,4]diazepin-6-yl)acetyl)piperidin-4-yl)methyl)piperazin-1-yl)methyl)phenyl)-N-(2-(diethylamino)ethyl)-5-(5-ethyl-2,4-dihydroxyphenyl)-4H-1,2,4-triazole-3-carboxamide, trifluoroacetic acid] | < 100 nM | 100 to 1000 nM | < 100 nM |
| Cc1cc(C(=O)N2Cc3ccc(CN4CCN(C(=O)C[C@@H]5N=C(c6ccc(Cl)cc6)c6c(sc(C)c6C)-n6c(C)nnc65)CC4)cc3C2)c(O)cc1O [Compound 144, (S)-2-(4-(4-chlorophenyl)-2,3,9-trimethyl-6H-thieno[3,2-f][1,2,4]triazolo[4,3-a][1,4]diazepin-6-yl)-1-(4-((2-(2,4-dihydroxy-5-methylbenzoyl)isoindolin-5-yl)methyl)piperazin-1-yl)ethan-1-one] | 100 to 1000 nM | 100 to 1000 nM | 100 to 1000 nM |
| Cc1sc2c(c1C)C(c1ccc(Cl)cc1)=N[C@@H](CC(=O)NCC(=O)NCC1CCN(C(=O)C3CCN(Cc4ccc(-n5c(O)nnc5-c5cc(C(C)C)c(O)cc5O)cc4)CC3)CC1)c1nnc(C)n1-2 [Compound 46, (S)-2-(4-(4-chlorophenyl)-2,3,9-trimethyl-6H-thieno[3,2-f][1,2,4]triazolo[4,3-a][1,4]diazepin-6-yl)-N-(2-(((1-(1-(4-(3-(2,4-dihydroxy-5-isopropylphenyl)-5-hydroxy-4H-1,2,4-triazol-4-yl)benzyl)piperidine-4-carbonyl)piperidin-4-yl)methyl)amino)-2-oxoethyl)acetamide, trifluoroacetic acid] | < 100 nM | < 100 nM | < 100 nM |
| CCc1cc(-c2nnc(O)n2-c2ccc(CN3CCC(C(=O)N4CCC(CNC(=O)C[C@@H]5N=C(c6ccc(Cl)cc6)c6c(sc(C)c6C)-n6c(C)nnc65)C4)CC3)cc2)c(O)cc1O (stereo partly drawn) [Compound 77, 2-((6S)-4-(4-chlorophenyl)-2,3,9-trimethyl-6H-thieno[3,2-f][1,2,4]triazolo[4,3-a][1,4]diazepin-6-yl)-N-((1-(1-(4-(3-(5-ethyl-2,4-dihydroxyphenyl)-5-hydroxy-4H-1,2,4-triazol-4-yl)benzyl)piperidine-4-carbonyl)pyrrolidin-3-yl)methyl)acetamide, trifluoroacetic acid] | 100 to 1000 nM | 100 to 1000 nM | < 100 nM |
| Cc1sc2c(c1C)C(c1ccc(Cl)cc1)=N[C@@H](CC(=O)NCC1CCN(C(=O)C3CCN(Cc4ccc(-n5c(O)nnc5-c5cc(C(C)C)c(O)cc5O)cc4)CC3)C1)c1nnc(C)n1-2 (stereo partly drawn) [Compound 45, 2-((S)-4-(4-chlorophenyl)-2,3,9-trimethyl-6H-thieno[3,2-f][1,2,4]triazolo[4,3-a][1,4]diazepin-6-yl)-N-((1-(1-(4-(3-(2,4-dihydroxy-5-isopropylphenyl)-5-hydroxy-4H-1,2,4-triazol-4-yl)benzyl)piperidine-4-carbonyl)pyrrolidin-3-yl)methyl)acetamide, trifluoroacetic acid] | < 100 nM | < 100 nM | < 100 nM |
| CCCc1cc(-c2nnc(O)n2-c2ccc(CN3CCN(CC4CCN(C(=O)C[C@@H]5N=C(c6ccc(Cl)cc6)c6c(sc(C)c6C)-n6c(C)nnc65)CC4)CC3)cc2)c(O)cc1O [Compound 11, (S)-2-(4-(4-chlorophenyl)-2,3,9-trimethyl-6H-thieno[3,2-f][1,2,4]triazolo[4,3-a][1,4]diazepin-6-yl)-1-(4-((4-(4-(3-(2,4-dihydroxy-5-propylphenyl)-5-hydroxy-4H-1,2,4-triazol-4-yl)benzyl)piperazin-1-yl)methyl)piperidin-1-yl)ethan-1-one, trifluoroacetic acid] | < 100 nM | < 100 nM | 100 to 1000 nM |
| Cc1sc2c(c1C)C(c1ccc(Cl)cc1)=N[C@@H](CC(=O)N1CCN(c3ccc(-n4c(O)nnc4-c4cc(C(C)C)c(O)cc4O)cc3)CC1)c1nnc(C)n1-2 [Compound 79, (S)-2-(4-(4-chlorophenyl)-2,3,9-trimethyl-6H-thieno[3,2-f][1,2,4]triazolo[4,3-a][1,4]diazepin-6-yl)-1-(4-(4-(3-(2,4-dihydroxy-5-isopropylphenyl)-5-hydroxy-4H-1,2,4-triazol-4-yl)phenyl)piperazin-1-yl)ethan-1-one] | < 100 nM | 100 to 1000 nM | 100 to 1000 nM |
| Cc1sc2c(c1C)C(c1ccc(Cl)cc1)=N[C@@H](CC(=O)N1CCC(Cc3ccc(-n4c(O)nnc4-c4cc(C(C)C)c(O)cc4O)cc3)CC1)c1nnc(C)n1-2 [Compound 3, 2-((6S)-4-(4-chlorophenyl)-2,3,9-trimethyl-6H-thieno[3,2-f][1,2,4]triazolo[4,3-a][1,4]diazepin-6-yl)-1-(4-(4-(3-(2,4-dihydroxy-5-isopropylphenyl)-5-hydroxy-4H-1,2,4-triazol-4-yl)benzyl)piperidin-1-yl)ethanone, trifluoroacetic acid] | < 100 nM | 100 to 1000 nM | > 1000 nM |
| Cc1sc2c(c1C)C(c1ccc(Cl)cc1)=N[C@@H](CC(=O)N1CCC(CN3CCN(Cc4ccc(-n5c(O)nnc5-c5cc(C(C)C)c(O)cc5O)cc4F)CC3)CC1)c1nnc(C)n1-2 [Compound 17, (S)-2-(4-(4-chlorophenyl)-2,3,9-trimethyl-6H-thieno[3,2-f][1,2,4]triazolo[4,3-a][1,4]diazepin-6-yl)-1-(4-((4-(4-(3-(2,4-dihydroxy-5-isopropylphenyl)-5-hydroxy-4H-1,2,4-triazol-4-yl)-2-fluorobenzyl)piperazin-1-yl)methyl)piperidin-1-yl)ethan-1-one, trifluoroacetic acid] | < 100 nM | 100 to 1000 nM | > 1000 nM |
